Source: patent US6387848B1, “Non-aqueous concentrated spreading oil composition” (priority 2000, dated 2002)
Read-outs that look alike come from different tables or passages of the source.

Legend:
[1] = test system: Pyricularia oryzae; type: in vivo; conditions: added to the water, 52 days after treatment
[2] = test system: Pyricularia oryzae; type: in vivo; conditions: added to the water, 126 day after treatment
[3] = Granules 50 g/kg, dose 100 g/ha
[4] = Granules 50 g/kg, dose 250 g/ha
[5] = Granules 50 g/kg, dose 500 g/ha
[6] = Granules 50 g/kg, dose 1000 g/ha
[7] = SO 30 g/L (Example 1), dose 50 g/ha
[8] = SO 30 g/L (Example 1), dose 100 g/ha
[9] = SO 30 g/L (Example 1), dose 250 g/ha
[10] = SO 30 g/L (Example 1), dose 500 g/ha
[11] = SO 30 g/L (Example 1), dose 1000 g/ha

C[C@H](Nc1c(-c2c(F)cc(F)cc2F)c(Cl)nc2ncnn12)C(F)(F)F [(S)-Azolopyrimidine C, 5-chloro-6-(2,4,6-trifluorophenyl)-7-(1,1,1-trifluoroprop-2-ylamino)-[1,2,4]triazolo[1,5-a]pyrimidine]
Percent rice leaf blast control, control (%) [1, 3]: 78% | Percent rice leaf blast control, control (%) [1, 4]: 86% | Percent rice leaf blast control, control (%) [1, 5]: 90% | Percent rice leaf blast control, control (%) [1, 6]: 95% | Percent rice leaf blast control, control (%) ([1]; Granules 50 g/kg, dose 1500 g/ha): 97% | Percent rice leaf blast control, control (%) [1, 7]: 84% | Percent rice leaf blast control, control (%) [1, 8]: 89% | Percent rice leaf blast control, control (%) [1, 9]: 95% | Percent rice leaf blast control, control (%) [1, 10]: 97% | Percent rice leaf blast control, control (%) [1, 11]: 98% | Percent rice danicle blast control, control (%) [2, 3]: 39% | Percent rice danicle blast control, control (%) [2, 4]: 44% | Percent rice danicle blast control, control (%) [2, 5]: 67% | Percent rice danicle blast control, control (%) [2, 6]: 82% | Percent rice danicle blast control, control (%) [2, 7]: 22% | Percent rice danicle blast control, control (%) [2, 8]: 44% | Percent rice danicle blast control, control (%) [2, 9]: 67% | Percent rice danicle blast control, control (%) [2, 10]: 78% | Percent rice danicle blast control, control (%) [2, 11]: 84%
